US6344184B1, “Oral composition for inhibiting oral malodor” (priority 1999, dated 2002)
Read-outs that look alike come from different tables or passages of the source.

System: VSCs (hydrogen sulfide, methyl mercaptan) formed by bacteria in freshly collected human saliva
Test: In vitro VSC inhibition in incubated human saliva, gas chromatography of gas phase
Format: cell-based
Protocol: In vitro experiments were performed to test the VSC-inhibiting potential of different combinations of zinc acetate and cationic antibacterial agents.
To a 1 ml sample of freshly collected human saliva in a test tube was added 10 microliter of the solutions (mouthrinses) described below. The test tubes were closed with a stopper and incubated overnight at 37° C. A control tube which contained only saliva served as a control. It is well known that large amounts of VSCs are formed in a test tube during the latter conditions, the bacteria breaking down the salivary proteins and forming VSCs from cysteine and methionine. The VSCs in the gas phase above the incubated saliva, were measured by gas chromatography in a Shimadzu 14B instrument, and hydrogen sulfide, methyl mercaptan and di-methyl sulfide were used as standard.
The solutions to be tested were: 0.3% zinc acetate, 0.025% chlorhexidine, 0.025% cetylpyridinium chloride and 0.025% benzalkonium chlorides. Subsequently the zinc acetate was combined with each of the individual antibacterial agents. All the experiments described In this paragraph were performed on the same day under Identical conditions. The concentrations chosen were based on experience from pilot experiments with different concentrations of the zinc and antibacterial agents.
An examination was conducted to investigate whether the effect of the combinations of zinc acetate and the individual antibacterial agents represented a synergistic effect. This was performed according to the method of Behrenbaum (J.lnf. Dis. 137:122-130, 1978). The fractional inhibitory concentrations (the FIC index) was calculated based on the amounts (AUC) of hydrogen sulfide and methyl mercaptan formed under different conditions. […] The FIC index was calculated from the following formula: (A+B)/A+(A+B)/B, where A+B represents the combinations of zinc and antibacterial agent, whereas A and B alone represent the individual agents.
If the FIC Index is below 1 (<1) a synergistic effect is established. If the index is like 1 (=1) an additional effect between A and B is seen, whereas an index above 1 (>1) indicates an antagonistic effect.

[1] = 10 microliter solution added to 1 ml human saliva, incubated overnight at 37° C, low AUC = strong inhibitor, control >27 mill
[2] = 10 microliter solution added to 1 ml human saliva, incubated overnight at 37° C, low AUC = strong inhibitor, control >41 mill

Compound	HS (hydrogen sulfide) AUC value (amount of VSC)	MM (methyl mercaptan) AUC value (amount of VSC)	HS (hydrogen sulfide) AUC value (amount of VSC) [1]	MM (methyl mercaptan) AUC value (amount of VSC) [2]	Effect on HS and MM in saliva, in words	Effect on HS and MM in saliva, in words (incubated human saliva, versus control)
CCCCCCCCCCCCCCCC[n+]1ccccc1 [CPC 0.025%, cethylpyridinium chloride]	5.2 mill	6.89 mill				
benzalkonium chloride [Benzalk 0.025%]			1.4 mill	1.7 mill		
CC(=O)[O-].CC(=O)[O-].[Zn+2] [Zinc Ac. 0.3%, zinc acetate]			150 000 AUC	4 mill	reduced the amount of HS much more than the amount of MM	
CC(=O)O.CC(=O)O.NC(=N\CCCCCC/N=C(N)/N=C(\N)Nc1ccc(Cl)cc1)/N=C(\N)Nc1ccc(Cl)cc1 [CHX 0.025%, chlorhexidine acetate]			443 000 AUC	355 000 AUC		clear effect on both HS and MM in the same order of magnitude as zinc acetate
